In patent US12459951B2, “Compounds that interact with RAS superfamily proteins for treatment of cancers, inflammatory diseases, rasopathies, and fibrotic disease” (SHY Therapeutics, LLC, priority 2022, dated 2025):

Key:
[1] = test system: Smad2/Smad3 phosphorylation; assay: Phospho-Smad2/3 Inhibition Assay (western blot), Panc-1; assay type: cell-based, human; details: at 10 μM, Panc-1 pancreatic cancer cell line; starred symbols = activation
Outline: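 Panc-1 cells (KRas G12D), starved overnight in 0.5% FBS, treated 3 h at 37° C with compound at 10 μM final (0.3% DMSO) or serial dilutions for IC50, then stimulated with 10 ng/ml TGF-b1 for 1 h. Phospho-Smad2 (Ser465/467) and phospho-Smad3 (Ser423/425) detected by western blot.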

IL6 = assay: IL-6 Quantification Assay (ELISA), LPS-stimulated RAW 264.7; assay type: cell-based; parameters: inhibition: dose or concentration left out as unconfirmed; details: Mus musculus, RAW264.7; read-out: IL-6: % inh.
Rac-1 = biological target: T1, Rac-1 (Homo sapiens, UniProt P63000); assay: Ras GTP Binding Domain Inhibition Assay (Ras Superfamily Assay); details: read-out: Rac-1: % inh.
T1 construct: made in house
Outline: (§1)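 Binding of 100 nM fluorescent GTP (Cy3 or Cy5, 45 min, room temperature) was read after washes from plate-captured His-tagged protein. Beforehand, compounds at 20 μM or in dilution series for IC50 sat 3 h on the protein in Tris buffer pH 7.4 or 7.0 with 1% DMSO, Sos GEF optionally added for the last hour.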

KRas G12D mutant = assay: as above; details: for KRas G12D mutant + SOS: % inh.: with SOS; for KRas G12D mutant: % inh.: without SOS
Outline: as §1

KRas wild type = assay: as above; details: for KRas wild type + SOS: % inh.: with SOS; for KRas wild type: % inh.: without SOS
Outline: as §1

SMILES	% inh of Smad2/3 phosphorylation in Panc-1 [1]	inhibition (IL6) [%]	inhibition at 20 µM (Rac-1) [%]	KRas G12D mutant + SOS: % inh. (KRas G12D mutant; at 20 μM)	KRas G12D mutant: % inh. (KRas G12D mutant; at 20 μM)	KRas wild type + SOS: % inh. (KRas wild type; at 20 μM)	KRas wild type: % inh. (KRas wild type; at 20 μM)	KRas G12D mutant + SOS: % inh. (KRas G12D mutant; 20 μM compound)	KRas G12D mutant: % inh. (KRas G12D mutant; 20 μM compound)	KRas wild type + SOS: % inh. (KRas wild type; 20 μM compound)	KRas wild type: % inh. (KRas wild type; 20 μM compound)
COc1ccc(N(C)c2nc(-c3nccn3C)nn3cc(-c4ccn(C)n4)c(C)c23)nc1 [Compound 225, N-(5-Methoxypyridin-2-yl)-N,5-dimethyl-2-(1-methyl-1H-imidazol-2-yl)-6-(1-methyl-1H-pyrazol-3-yl)pyrrolo[2,1-f][1,2,4]triazin-4-amine]	0 (0 = 0% inhibition)	0	1 to 25	A (A = 1-25% inhibition)	B (B = 26-49% inhibition)	A (A = 1-25% inhibition)	A (A = 1-25% inhibition)				
CO[C@H]1CC[C@H](Nc2nc(-c3nccn3C)nn3cc(-c4cccnc4)c(-c4ccccc4)c23)C1 (racemic) [Compound 194, rac N-((1S,3S)-3-Methoxycyclopentyl)-2-(1-methyl-1H-imidazol-2-yl)-5-phenyl-6-(pyridin-3-yl)pyrrolo[2,1-f][1,2,4]triazin-4-amine]	A (A = 1-25% inhibition)	75 to 100	1 to 25	A (A = 1-25% inhibition)	A (A = 1-25% inhibition)	0 (0 = 0% inhibition)	A (A = 1-25% inhibition)				
CO[C@H]1CC[C@H](Nc2nc(-c3nccn3C)nn3cc(-c4ccncc4)c(-c4ccccc4)c23)C1 (racemic) [Compound 201, rac N-((1S,3S)-3-Methoxycyclopentyl)-2-(1-methyl-1H-imidazol-2-yl)-5-phenyl-6-(pyridin-4-yl)pyrrolo[2,1-f][1,2,4]triazin-4-amine]	A (A = 1-25% inhibition)	75 to 100	26 to 49	B (B = 26-49% inhibition)	B (B = 26-49% inhibition)	B (B = 26-49% inhibition)	A (A = 1-25% inhibition)				
COCCNC(=O)c1c(-c2ccn(C)n2)cn2nc(-c3nccn3C)nc(N[C@H]3CC[C@H](OC)C3)c12 (racemic) [Compound 183, rac 4-(((1S,3S)-3-Methoxycyclo-pentyl)amino)-N-(2-methoxyethyl)-2-(1-methyl-1H-imidazol-2-yl)-6-(1-methyl-1H-pyrazol-3-yl)pyrrolo[2,1-f][1,2,4]triazine-5-carboxamide]	D* (D* = 76-100% activation)	25 to 49	1 to 25					A (A = 1-25% inhibition)	A (A = 1-25% inhibition)	A (A = 1-25% inhibition)	0 (0 = 0% inhibition)
COc1cccc(-c2cn3nc(-c4nccn4C)nc(N[C@H]4C[C@H](OC)C4)c3c2-c2ccccc2)c1OC [Compound 219, 6-(2,3-Dimethoxyphenyl)-N-((1r,3r)-3-methoxycyclobutyl)-2-(1-methyl-1H-imidazol-2-yl)-5-phenylpyrrolo[2,1-f][1,2,4]triazin-4-amine]	D (D = 76-100% inhibition)	75 to 100	1 to 25	0 (0 = 0% inhibition)	A (A = 1-25% inhibition)	0 (0 = 0% inhibition)	A (A = 1-25% inhibition)				
Cc1ccc(Nc2nc(-c3nccn3C)nn3cc(-c4ccn(C)n4)c(C)c23)nc1 [Compound 226, 5-Methyl-2-(1-methyl-1H-imidazol-2-yl)-6-(1-methyl-1H-pyrazol-3-yl)-N-(5-methylpyridin-2-yl)pyrrolo[2,1-f][1,2,4]triazin-4-amine]	D (D = 76-100% inhibition)	50 to 74	76 to 100	D (D = 76-100% inhibition)	D (D = 76-100% inhibition)	D (D = 76-100% inhibition)	D (D = 76-100% inhibition)				
Cn1ccnc1-c1nc(NS(C)(=O)=O)c2c(-c3ccccc3)c(-c3ccccc3)cn2n1 [Compound 212, N-(2-(1-Methyl-1H-imidazol-2-yl)-5,6-diphenylpyrrolo[2,1-f][1,2,4]triazin-4-yl) methanesulfonamide]	C (C = 46-75% inhibition)	1 to 24	50 to 75	D (D = 76-100% inhibition)	C (C = 50-75% inhibition)	D (D = 76-100% inhibition)	C (C = 50-75% inhibition)				
CO[C@H]1C[C@H](Nc2nc(-c3nccn3C)nn3cc(-c4cnccc4C)c(-c4ccccc4)c23)C1 [Compound 218, N-((1r,3r)-3-Methoxycyclobutyl)-2-(1-methyl-1H-imidazol-2-yl)-6-(4-methylpyridin-3-yl)-5-phenylpyrrolo[2,1-f][1,2,4]triazin-4-amine]	B* (B* = 26-45% activation)	1 to 24	1 to 25	A (A = 1-25% inhibition)	A (A = 1-25% inhibition)	A (A = 1-25% inhibition)	A (A = 1-25% inhibition)				
COc1cccc(Nc2nc(-c3ccccn3)nn3cc(-c4ccn(C(C)C)n4)c(C)c23)n1 [Compound 14, 6-(1-Isopropyl-1H-pyrazol-3-yl)-N-(6-methoxypyridin-2-yl)-5-methyl-2-(pyridin-2-yl)pyrrolo[2,1-f][1,2,4]triazin-4-amine]	0 (0 = 0% inhibition)	50 to 74	0					0 (0 = 0% inhibition)	A (A = 1-25% inhibition)	A (A = 1-25% inhibition)	0 (0 = 0% inhibition)
